Data reported in article PMC11507441, “Oilseed Cakes: A Promising Source of Antioxidant, and Anti-Inflammatory Agents—Insights from Lactuca sativa” (International Journal of Molecular Sciences, 2024).
Converted amounts (≈) assume the structure as drawn.

Tests used:
dermal inflammation = assay: Histopathological assessment of paw skin tissue (carrageenan model); type: in vivo, rat; details: Group 3, ibuprofen 10 mg/kg; 5 h after carrageenan
Text: Five hours following the carrageenan injection, tissue specimen samples from the paw skin tissue of every group under study were removed for histological examination. Prior to being submerged in paraffin blocks, they were fixed in a 10% formalin solution and stained with hematoxylin-eosin. Using a microtome, paraffin sections with a thickness of 5 µm were cut, and hematoxylin and eosin were frequently applied to the sections. Microscopically, these tissue slices were inspected. Consequently, the sections were examined under a light microscope; on the other hand, photos taken with a digital camera (Canon Power-shot D10) recorded the progression of paw oedema.

CAT = CAT activity in rat paw tissue homogenate (carrageenan model); type: in vivo; details: paw tissue 5 h after carrageenan; ibuprofen 10 mg/kg
Experimental: (§1) The levels of inflammatory mediators (IL-1β, TNF-α, and PGE2) in rat paw tissue homogenate were measured using the following Kits: Rat TNF-α (Tumor Necrosis Factor Alpha) ELISA Kit from Elabscience® Company, Houston, TX, USA, Interleukin 1 Beta (IL-1b) Organism Species: Rattus norvegicus (Rat) from Cloud Clone Crop Company and Rat PGE2 (Prostaglandin E2) ELISA Kit from Fine test® company Hubei, China. In addition, oxidative stress parameters in rat paw tissue homogenate were measured using superoxide dismutase, glutathione peroxidase, and catalase Kits from the Biodiagnostic company, Birmingham, UK.
(§2) Rats were slaughtered, and their paw tissues were gathered and weighed five hours after the carrageenan was administered. The tissues underwent processing after being fixed in 10% formalin. Rat paw tissue was homogenized, and its oxidative stress indices (SOD, CAT, and GPx) as well as the levels of inflammatory mediators (IL-1β, TNF-α, and PGE2) were measured.

GPx = GPx activity in rat paw tissue homogenate (carrageenan model); type: in vivo
Experimental: as §1, §2

SOD = SOD activity in rat paw tissue homogenate (carrageenan model); type: in vivo
Experimental: as §1, §2

[1] = tested on: carrageenan-induced paw oedema; assay: Carrageenan-induced paw oedema; type: in vivo; details: dose 10 mg/kg oral, rat
Experimental: Adult albino rats 180-220 g of both sexes used in the investigation were acquired from the Mansoura University Faculty of Pharmacy's Animal House. Standard laboratory diet and water were provided, and they were housed in cages maintained at a constant temperature of 22 ± 2 °C. The Animal Care and Use Committee (MU-ACUC) of Mansoura University, Egypt, has approved all procedures involving animals with code number: […] Throughout the experiment, medications and extracts were given orally in doses of 1 mL/100 g of the rat's body weight after being solubilized in carboxymethyl cellulose (CMC) in order to create a suspension formula. In this test, rats were divided into six groups, with each group containing 5 animals. Group-1: […] Group-2: Positive control (carrageenan-induced oedema, Sigma (St. Louis, MO, USA)) without any treatment. […] Group-4: […] extract of Lactuca sativa was administered at a 2 g/kg dose. Group-5: Compound (1) is administered at a dose of 20 mg/kg. Group-6: Compound (1) at a dose of 40 mg/kg. Group-7: Combination of standard and compound (1) at doses of (10 + 20) mg/kg, respectively. […] Using a digital vernier calliper, the swelling of the paw that had been injected with carrageenan was measured prior to injection as well as 1, 2, 3, 4, and 5 h following the treatment's induction. The percentage inhibition of oedema in the test animals treated with the extract compared to the carrageenan control group was used to calculate the anti-inflammatory activity. The formula […] was used to calculate the percentage inhibition of inflammation, where “dt” represents the difference in paw volume in the drug-treated group and “dc” represents the difference in paw volume relative to the control group. Moreover, “I” represents the suppression of inflammation.

C. albicans = assay: Antimicrobial screening, zone of inhibition; type: cell-based; details: for zone of inhibition at 1000 µg/mL: Candida albicans, isolated compounds 1 mg/mL, read-out: C. Albicans Diameter of Inhibition Zone (mm); for C. Albicans %Activity Index: 1 mg/mL
Experimental: (§3) The procedure was performed according to […] et al.. A comparison of the extract's zone of inhibition to that of a reference antibiotic's activity index was determined using the following equation:Activity index = (the inhibition zone of extract/the inhibition zone of the standard) × 100

S. aureus = assay: Antimicrobial screening, zone of inhibition; type: cell-based; details: for zone of inhibition at 1000 µg/mL: Staphylococcus aureus, isolated compounds 1 mg/mL, read-out: S. aureus Diameter of Inhibition Zone (mm); for S. aureus %Activity Index: 1 mg/mL
Experimental: as §3

E. coli = assay: Antimicrobial screening, zone of inhibition; type: cell-based; details: for zone of inhibition at 1000 µg/mL: Escherichia coli, isolated compounds 1 mg/mL, read-out: E. coli Diameter of Inhibition Zone (mm); for E. coli %Activity Index: 1 mg/mL
Experimental: as §3

MCF-7 cancer cell line = assay: Cytotoxic activity (MTT assay); type: cell-based; details: for IC50: Homo sapiens, MCF7, read-out: In Vitro Cytotoxicity IC50 (µg/mL) MCF-7; for Selectivity Index MCF-7: IC50 normal (WI-38)/IC50 cancer
Experimental: (§4) The HPLC was performed in the Institute for Plant Biology, TU Braunschweig, using a Young Lin quaternary pump, vacuum degasser, column oven (40 °C), diode array detector (YL9160 PDA), and a Midas Spark Holland autosampler. UV spectra (λ max) were measured in the central laboratory of the Faculty of Pharmaceutical Science at Mansoura University using spectroscopic methanol with an ultraviolet-visible spectrophotometer (Shimadzu 1601 PC, version TCC-240A, Kyoto, Japan). The NMR unit of Mansoura University’s Faculty of Pharmacy obtained nuclear magnetic resonance spectra (^1H-NMR, ^13C-NMR, DEPT-Q, APT, HSQC, and HMBC) using a Bruker DRX 600 NMR spectrometer (600 and 150 MHz for ^1H and ^13C-NMR, respectively) and with the Bruker Corporation Avance III 400 spectrometer, which measures ^1H and ^13C-NMR at 400 and 100 MHz, respectively. The types of solvents that are used are CDCl3, CD3OD, and DMSO-d6. For normal phase chromatography, silica gel G 60–230 mesh (Merck, Darmstadt, Germany) was packed using a wet or dry method in the specified solvent. The purchase of Normal Human lung fibroblast (WI-38), hepatic cancer cell lines (HePG-2), and mammary gland (MCF-7) cell lines from ATCC was made possible by the Holding firm for biological goods and vaccines (VACSERA), which is based in Cairo, Egypt.
(§5) Using the MTT test, the inhibitory effects of substances on cell growth were ascertained using the cell lines compared to normal lung fibroblast cells (WI-38). The selectivity index was calculated via the Selectivity index (SI) equation: SI equals IC50 normal/IC50 cancer.

HepG-2 cancer cell line = assay: Cytotoxic activity (MTT assay); type: cell-based; details: for IC50: Homo sapiens, HepG2, read-out: In Vitro Cytotoxicity IC50 (µg/mL) HepG-2; for Selectivity Index HepG2: IC50 normal (WI-38)/IC50 cancer
Experimental: as §4, §5

[2] = Cytotoxic activity (MTT assay), normal cells; type: cell-based; details: human
Experimental: as §4, §5

P. aeruginosa = assay: Antimicrobial screening, zone of inhibition; type: cell-based; details: Table 1; for zone of inhibition at 1000 µg/mL: Pseudomonas aeruginosa, isolated compounds 1 mg/mL, read-out: P. aeruginosa Diameter of Inhibition Zone (mm); for P. aeruginosa %Activity Index: 1 mg/mL, relative to ciprofloxacin
Experimental: The procedure was performed according to Stylianakis et al.. A comparison of the extract’s zone of inhibition to that of a reference antibiotic’s activity index was determined using the following equation:Activity index = (the inhibition zone of extract/the inhibition zone of the standard) × 100

[3] = paw tissue 5 h after carrageenan, ibuprofen 10 mg/kg
[4] = Table 1, relative to clotrimazole
[5] = Table 1, relative to ciprofloxacin
[6] = Table S1, relative to ampicillin standard
[7] = Table S1, extracts and fractions 1 mg/mL

Row | SMILES | zone of inhibition at 1000 µg/mL (C. albicans; Table 1) [mm] | C. Albicans %Activity Index (C. albicans; [4]) [%] | zone of inhibition at 1000 µg/mL (S. aureus; Table 1) [mm] | S. aureus %Activity Index (S. aureus; [5]) [%] | zone of inhibition at 1000 µg/mL (E. coli; Table 1) [mm] | E. coli %Activity Index (E. coli; [5]) [%] | IC50 (MCF-7 cancer cell line) [µg/mL] | Selectivity Index MCF-7 (MCF-7 cancer cell line) | IC50 (HepG-2 cancer cell line) [µg/mL] | Selectivity Index HepG2 (HepG-2 cancer cell line) | IC50 [2] [µg/mL] | zone of inhibition at 1000 µg/mL (P. aeruginosa) [mm] | P. aeruginosa %Activity Index (P. aeruginosa) [%] | also measured
1 | CC(C)Cc1ccc(C(C)C(=O)O)cc1 (centres unmarked) [Ibuprofen, ibuprofen, reference compound] | – | – | – | – | – | – | – | – | – | – | – | – | – | Histopathology of paw skin (H&E) (dermal inflammation): mild dermal inflammation; CAT (U/gm Tissue) (CAT): 2.20 ± 0.20 U/gm Tissue; GSH protection (GPx; ibuprofen alone): 78.74%; GPx (U/gm Tissue) (GPx; [3]): 93.35 ± 8.84 U/gm Tissue; SOD protection (SOD; ibuprofen alone): 75.17%; SOD (U/gm Tissue) (SOD; [3]): 142.1 ± 14.71 U/gm Tissue; % Inhibition (%I) of paw oedema ([1]; 1 h): 15.62%; Increase in Paw Oedema ([1]; 1 h): 0.69 ± 0.16 mL; % Inhibition (%I) of paw oedema ([1]; 2 h): 25.62%; Increase in Paw Oedema ([1]; 2 h): 1.57 ± 0.21 mL; % Inhibition (%I) of paw oedema ([1]; 3 h): 28.5%; Increase in Paw Oedema ([1]; 3 h): 1.82 ± 0.38 mL; % Inhibition (%I) of paw oedema ([1]; 4 h): 62.66%; Increase in Paw Oedema ([1]; 4 h): 1.49 ± 0.47 mL; % Inhibition (%I) of paw oedema ([1]; 5 h): 70.9%; Increase in Paw Oedema ([1]; 5 h): 1.20 ± 0.37 mL
2 | O=c1cc(-c2ccc(O)c(O)c2)oc2cc(O)cc(O)c12 [Compound 2, luteolin] | 10.7 ± 0.15 | 40.5 | 17 ± 0.1 | 71.7 | 9.8 ± 0.2 | 37.8 | 11.6 ± 0.9 (≈ 40.6 µM) | 5.1 | 19.5 ± 1.3 (≈ 68.1 µM) | 3 | 59.3 ± 3.2 (≈ 207 µM) | 12.9 ± 0.1 | 56.6 | –
3 | CC1(C)S[C@@H]2[C@H](NC(=O)[C@H](N)c3ccccc3)C(=O)N2[C@H]1C(=O)O [Ampicillin, ampicillin, reference compound] | – | – | – | – | – | – | – | – | – | – | – | – | – | S. aureus %Activity Index (S. aureus; [6]): 100%; S. aureus Diameter of inhibition zone (mm) (S. aureus; [7]): 22.87±0.15 mm; E. coli %Activity Index (E. coli; [6]): 100%; E. coli Diameter of inhibition zone (mm) (E. coli; [7]): 23.9 ± 0.15 mm
4 | O=c1cc(-c2ccc(O)c(O)c2)oc2cc(O[C@@H]3O[C@H](CO)[C@@H](O)[C@H](O)[C@H]3O)cc(O)c12 [Compound 3, luteolin 7-O-β-D-glucoside] | 9.87 ± 0.15 | 36.7 | 14.8 ± 0.15 | 61.9 | 8.8 ± 0.15 | 33.8 | 17.8 ± 1.3 (≈ 39.7 µM) | 2.8 | 24.8 ± 1.9 (≈ 55.4 µM) | 2 | 49.6 ± 2.7 (≈ 111 µM) | 11.8 ± 0.25 | 51.5 | –
5 | Clc1ccccc1C(c1ccccc1)(c1ccccc1)n1ccnc1 [Clotrimazole, clotrimazole, reference compound] | 26.9 ± 0.1 | 100 | – | – | – | – | – | – | – | – | – | – | – | C. Albicans %Activity Index (C. albicans; Table S1, relative to clotrimazole standard): 100%; C. Albicans Diameter of inhibition zone (mm) (C. albicans; [7]): 25.9±0.1 mm
